Source: PubChem BioAssay AID2384 (Southern Research Specialized Biocontainment Screening …, 2010)
Values joined by “and” are separate entries in the source; they are usually repeats but may differ in a detail not shown here. Equal entries are not always repeated.

System: S. typhi GFP reporter counter-screen, fluorescence, 4 h
Experiment: inhibitors in S. typhi counter-screen strain, dose response, counter-screen for PhoP regulon inhibitor project, fluorescence, 4 h (AID 2384)

Compound	IC50
Clc1ccc2[nH]c3c(c2c1)CCc1cn[nH]c1-3	105 µM
CCCCc1c(O)nc(SCC(=O)Nc2ccc3c(c2)CCC3)[nH]c1=O	112 µM
CS(=O)(=O)c1ccc([C@@H](O)[C@@H](CF)NC(=O)C(Cl)Cl)cc1	5.15 µM
COc1ccc(/C=N/Nc2cc(C)nc3ccccc23)cc1	29.2 µM
COc1cc(/C=C2/C(=O)NN(c3ccc(C)c(Cl)c3)C2=O)cc([N+](=O)[O-])c1O	74.6 µM
OC(CNCCc1ccccc1)COc1ccc(OCC(O)CNCCc2ccccc2)cc1 (configuration not stated)	21.3 µM
COc1ccc(C(C[N+](=O)[O-])C2(c3ccc(OC)c(OC)c3)C(=O)c3ccccc3C2=O)cc1 (configuration not stated)	18.2 µM
CN(C)CCCN(C(=O)COc1ccccc1)c1nc2ccc(Cl)cc2s1	40.5 µM
Clc1ccc(CN2CCc3c([nH]c4ccccc34)C2)cc1Cl	36.2 µM
Nc1ncn(C2O[C@H](CO)[C@@H](O)[C@H]2O)c(=O)n1 (some centres not stated)	35.2 µM
O=C(Nc1ccc(Cc2ccncc2)cc1)c1ccc([N+](=O)[O-])o1	126 µM
CC(C)(C)c1ccc(OCCCNC2CCCC2)cc1	77.7 µM
Cc1occc1C(=O)N/N=C/c1cccs1	54.9 µM
c1cc2c(cc1C1CCCCC1)c1c3n2CCCNC3CCC1 (configuration not stated)	20.3 µM
CCN1CCCC1CNC(=O)C1CCN(Cc2nc(-c3cccc(Br)c3)oc2C)CC1 (configuration not stated)	33.3 µM
COc1cc(/C=N/NC(=O)c2cncc(Br)c2)cc([N+](=O)[O-])c1O	19.1 µM
CCn1nc(C(=O)O)c(=O)c2cc3c(cc21)OCO3	84.1 µM
N#C/C(=N\Nc1ccc([N+](=O)[O-])cc1)C(N)=S	108 µM
CCCCC(=O)NNC(=S)NC(=O)CCC	92.6 µM
CN1CC=C(/C=C/c2ccc(-c3ccccc3)cc2)CC1	23.7 µM
O=C(NC1CCCC1)c1ccc(Br)s1	49.5 µM
CCCCC(CC)CN=C(N)NC(N)=NCCCCCCN=C(N)NC(N)=NCC(CC)CCCC (configuration not stated)	4.65 µM
O=C(Nc1nnc(-c2cccs2)o1)c1cccc(C(F)(F)F)c1	26.4 µM
O=C(O)c1cn(C2CC2)c2cc(N3CCN(S(=O)(=O)c4ccc5c(c4)OCCO5)CC3)c(F)cc2c1=O	15.9 µM
CC[N+](C)(CC)CCC[n+]1c(-c2ccccc2)c2cc(N)ccc2c2ccc(N)cc21	128 µM
Cc1ccc(-n2c(C)cc(C3N=C(N)Nc4nc5ccccc5n43)c2C)c(C)c1 (configuration not stated)	26.6 µM

Compound	IC50
COc1ccc(C(=O)CCN2CCc3cc(OC)c(OC)cc3C2)cc1	120 µM
Oc1ccc(/C=N/Nc2nccnc2Cl)c(O)c1	30.5 µM
CN(C)CCCN1c2ccccc2Sc2ccc(Cl)cc21	34.3 µM and 31.8 µM
Cc1ccc2c(c1)c1c(n2CC(O)CN2CCC(C)CC2)CCCC1 (configuration not stated)	82.4 µM
O=C(Oc1c(Br)cc([N+](=O)[O-])cc1Br)c1cccnc1	28.5 µM
CN(C)CC/C=C1\c2ccccc2Sc2cc(F)c(Cl)cc21	34.8 µM
COc1ccc(/C=N/Nc2cc(C)nc3ccc(Br)cc23)cc1	36.4 µM
N=c1c2c(n(Cc3ccc(Cl)c(Cl)c3)c3c1CCC3)CCCC2	31.1 µM
O=C(N/N=C/c1ccc(N2CCCC2)c([N+](=O)[O-])c1)c1cccnc1	104 µM
COc1ccc(C(=O)NC(=S)NNC(=O)c2cnccn2)cc1	47.1 µM
CC(C)Oc1ccc(Cc2cnc(N)nc2N)cc1	33.3 µM
Cc1[nH]c2ccc(OC(F)(F)F)cc2c1CCNCc1ccc(Cl)cc1	20.5 µM
CCn1cc(C(=O)O)c(=O)c2cc(F)c(N3CCN(C(=O)Nc4ccccc4)CC3)cc21	50.8 µM
COc1ccc(Nc2cc(C)c3c(O)cccc3n2)cc1	24.9 µM
COc1cccc(-c2nnc(NC(=O)c3ccc(Cl)s3)o2)c1	45.7 µM
Cc1ccc(C(c2cc(Cl)c3cccnc3c2O)N2CCN(C)CC2)cc1 (configuration not stated)	30.4 µM
CCOC(=O)C1=C(C(C)=O)C(c2cccnc2)C(C#N)=C(N)O1 (configuration not stated)	57.5 µM
Cc1cc(N=Nc2ccc(C)c(N=Nc3cc(C)c(N)cc3N)c2)c(N)cc1N	57.6 µM
Oc1c(Br)cc(Br)cc1C=Nc1ccc2[nH]ncc2c1	21.8 µM
O=C(CN1CC[n+]2c(-c3cccs3)csc21)c1ccc(-c2ccccc2)cc1	20.3 µM
O=C(NC(CO)Cc1ccc([N+](=O)[O-])cc1)C(Cl)Cl (configuration not stated)	3.82 µM
CCn1cc(C(=O)NCC(C)C)c(=O)c2cc(F)c(N3CCN(C)CC3)cc21	64.4 µM
CC(NCC(O)COc1ccc2ccccc2c1)c1ccccc1 (configuration not stated)	58.4 µM
Nc1[nH]ncc1-c1ccccc1	48 µM
COc1ccc(S(=O)(=O)N2CN3CCN(C3)C2)cc1	90.8 µM
Clc1ccc(/C=C/c2ncc[nH]2)c(Cl)c1	32.5 µM
